Drawing on PubChem BioAssay AID210 (DTP/NCI, 2004), this text covers T/C for 14 molecules.

This test relates to CD2F1 mice, ip Colon 26 adenocarcinoma, median survival T/C. As to the kind of experiment: NCI In Vivo Anticancer Drug Screen. Data for tumor model Colon 26 Adenocarcinoma (intraperitoneal) in CD2F1 (CDF1) mice. As to conditions: endpoint: median survival time, higher = longer survival. Here is the method: The antitumor activity of compounds was measured in mice bearing transplantable tumors. Survival or tumor size were measured and the results are expressed as the measurement made in the treated group (T) divided by the measurement made in the vehicle treated control group (C). The tumor model used in this assay is Colon 26 Adenocarcinoma (intraperitoneal) in CD2F1 (CDF1) mice

Setting [1] is: dose: 12.5 mg/kg/injection, schedule: Q04DX002 (ip), vehicle: saline with Tween-80.
[2] abbreviates: dose: 25.0 mg/kg/injection, schedule: Q04DX002 (ip), vehicle: saline with Tween-80.
Where [3] appears, read: dose: 50.0 mg/kg/injection, schedule: Q04DX002 (ip), vehicle: saline with Tween-80.
The mark [4] stands for this setting: dose: 12.5 mg/kg/injection, schedule: Q04DX003 (ip), vehicle: saline with Tween-80.
Where [5] appears, read: dose: 25.0 mg/kg/injection, schedule: Q04DX003 (ip), vehicle: saline with Tween-80.
[6] abbreviates: dose: 50.0 mg/kg/injection, schedule: Q04DX003 (ip), vehicle: saline with Tween-80.
The mark [7] stands for this setting: dose: 100.0 mg/kg/injection, schedule: Q04DX003 (ip), vehicle: saline with Tween-80.
The mark [8] stands for this setting: dose: 200.0 mg/kg/injection, schedule: Q04DX003 (ip), vehicle: saline with Tween-80.

Each structure is given as a SMILES string. Inconclusive results and toxic doses are left out.

Take `COc1cccc2c1C(=O)c1c(O)c3c(c(O)c1C2=O)C[C@@](O)(/C(CO)=N/NC(=O)c1ccc(Cl)c(Cl)c1)C[C@@H]3OC1CC(N)C(O)C(C)O1` (stereo not given in full): the T/C was 92 % of control (dose: 16.0 mg/kg/injection, schedule: Q07DX002 (iv), vehicle: saline); 109 % of control (dose: 24.0 mg/kg/injection, schedule: Q07DX002 (iv), vehicle: saline); 103 % of control (dose: 36.0 mg/kg/injection, schedule: Q07DX002 (iv), vehicle: saline).
Consider `CN(N=O)C(=O)N[C@@H](C=O)[C@@H](O)[C@H](O)[C@H](O)CO`, for which the T/C is, setting by setting: (dose: 12.5 mg/kg/injection, schedule: Q04DX003 (ip), vehicle: other) 113 % of control; (dose: 25.0 mg/kg/injection, schedule: Q04DX003 (ip), vehicle: other) 110 % of control; (dose: 50.0 mg/kg/injection, schedule: Q04DX003 (ip), vehicle: other) 118 % of control; (dose: 100.0 mg/kg/injection, schedule: Q04DX003 (ip), vehicle: other) 124 % of control; (dose: 200.0 mg/kg/injection, schedule: Q04DX003 (ip), vehicle: other) 123 % of control.
`Cc1cc(=O)n2c3c(c4c(cc13)c(CN(C)C)cc(=O)n4C)OC2`: the T/C by setting is: (dose: 6.25 mg/kg/injection, schedule: Q04DX002 (ip), vehicle: saline with Tween-80) 99 % of control; under setting [1], 99 % of control; under setting [2], 107 % of control; under setting [3], 102 % of control.
For `CCOC(=O)c1ccc(NC(=O)Nc2nccs2)cc1`, the T/C was 97 % of control under setting [1]; 105 % of control under setting [2]; 95 % of control under setting [3]; 106 % of control (dose: 100.0 mg/kg/injection, schedule: Q04DX002 (ip), vehicle: saline with Tween-80); 102 % of control (dose: 200.0 mg/kg/injection, schedule: Q04DX002 (ip), vehicle: saline with Tween-80); 110 % of control (dose: 400.0 mg/kg/injection, schedule: Q04DX002 (ip), vehicle: saline with Tween-80).
`Cc1ccc(NC(=O)Oc2ccc(Br)cc2Br)c([N+](=O)[O-])c1`: the T/C is, setting by setting: under setting [4], 97 % of control; under setting [5], 100 % of control; under setting [6], 100 % of control; under setting [7], 107 % of control; under setting [8], 117 % of control; (dose: 400.0 mg/kg/injection, schedule: Q04DX003 (ip), vehicle: saline with Tween-80) 123 % of control.
Regarding `CSC1SCC2C(=O)N(C)C(C(C)C)C(=O)OCC(NC(=O)c3cnc4ccccc4n3)C(=O)NC(C)C(=O)N(C)C1C(=O)N(C)C(C(C)C)C(=O)OCC(NC(=O)c1cnc3ccccc3n1)C(=O)NC(C)C(=O)N2C` (stereo not given), the T/C was 87 % of control (dose: 25.0 micrograms/kg/injection, schedule: Q01DX004 (ip), vehicle: saline sonified); 86 % of control (dose: 100.0 micrograms/kg/injection, schedule: Q01DX004 (ip), vehicle: saline sonified); 94 % of control (dose: 100.0 micrograms/kg/injection, schedule: Q03DX002 (ip), vehicle: saline sonified); 90 % of control (dose: 150.0 micrograms/kg/injection, schedule: Q03DX002 (ip), vehicle: saline sonified).
On to `C=C1C(=O)C23C(O)CC4C5(C)CCCC4(C(O)OC5)C2C(OC(C)=O)CC1C3O` (stereo not given), for which the T/C is, setting by setting: (dose: 8.0 mg/kg/injection, schedule: Q04DX002 (ip), vehicle: saline with Tween-80) 116 % of control; (dose: 16.0 mg/kg/injection, schedule: Q04DX002 (ip), vehicle: saline with Tween-80) 109 % of control; (dose: 32.0 mg/kg/injection, schedule: Q04DX002 (ip), vehicle: saline with Tween-80) 92 % of control; (dose: 64.0 mg/kg/injection, schedule: Q04DX002 (ip), vehicle: saline with Tween-80) 103 % of control.
As for `Cc1ncc([N+](=O)[O-])n1CCO`, the T/C is, setting by setting: (dose: 37.5 mg/kg/injection, schedule: Q04DX003 (ip), vehicle: Klucel (hydroxypropylcellulose) (HPC)) 114 % of control; (dose: 75.0 mg/kg/injection, schedule: Q04DX003 (ip), vehicle: Klucel (hydroxypropylcellulose) (HPC)) 118 % of control; (dose: 150.0 mg/kg/injection, schedule: Q04DX003 (ip), vehicle: Klucel (hydroxypropylcellulose) (HPC)) 106 % of control; (dose: 300.0 mg/kg/injection, schedule: Q04DX003 (ip), vehicle: Klucel (hydroxypropylcellulose) (HPC)) 109 % of control; (dose: 600.0 mg/kg/injection, schedule: Q04DX003 (ip), vehicle: Klucel (hydroxypropylcellulose) (HPC)) 108 % of control.
In the case of `O=c1[nH]cc(F)c(=O)[nH]1`, the T/C runs as follows: (dose: 28.8 mg/kg/injection, schedule: Q04DX003 (sc), vehicle: other) 120 % of control; (dose: 36.0 mg/kg/injection, schedule: Q04DX003 (ip), vehicle: saline) 175 % of control; (dose: 40.0 mg/kg/injection, schedule: Q04DX003 (ip), vehicle: saline) 186 % of control; (dose: 60.0 mg/kg/injection, schedule: Q04DX003 (ip), vehicle: saline) 164 % of control; (dose: 70.0 mg/kg/injection, schedule: Q07DX003 (ip), vehicle: saline) 152 % of control; (dose: 80.0 mg/kg/injection, schedule: Q04DX003 (ip), vehicle: saline) 95 % of control. In addition, the T/C reads like this: (dose: 100.0 mg/kg/injection, schedule: Q04DX003 (ip), vehicle: saline) 79 % of control; (dose: 100.0 mg/kg/injection, schedule: Q07DX003 (ip), vehicle: saline) 165 % of control; (dose: 140.0 mg/kg/injection, schedule: Q07DX003 (ip), vehicle: saline) 150 % of control; (dose: 160.0 mg/kg/injection, schedule: Q04DX003 (ip), vehicle: saline) 74 % of control.
For `COc1cccc2c1C(=O)c1c(O)c3c(c(O)c1C2=O)C[C@@](O)(C(=O)CO)C[C@@H]3OC1CC(OC(C)=O)C(OC(C)=O)C(C)O1` (stereo not given in full), the T/C is 109 % of control (dose: 58.0 mg/kg/injection, schedule: Q07DX002 (sc), vehicle: distilled water + Tween-80); 120 % of control (dose: 101.0 mg/kg/injection, schedule: Q07DX002 (sc), vehicle: distilled water + Tween-80); 150 % of control (dose: 300.0 mg/kg/injection, schedule: Q07DX002 (sc), vehicle: distilled water + Tween-80).
As for `COc1ccc2cc1Oc1ccc(cc1)C[C@H]1c3cc(c(OC)cc3CCN1C)Oc1c(OC)c(OC)cc3c1[C@H](C2)N(C)CC3`, the T/C is 92 % of control under setting [4]; 101 % of control under setting [5]; 92 % of control under setting [6]; 94 % of control under setting [7]; 101 % of control under setting [8].
Consider `COc1c(O)c2c(c3cc(C(=O)N4CCc5c4c(O)c(OC)c4[nH]c(C(=O)N6CC7CC78C6=CC(=O)c6[nH]cc(C)c68)cc54)[nH]c13)CCN2C(N)=O` (stereo not given), for which the T/C by setting is: (dose: 6.3 micrograms/kg/injection, schedule: Q01DX009 (ip), vehicle: saline) 104 % of control; (dose: 12.5 micrograms/kg/injection, schedule: Q01DX009 (ip), vehicle: saline) 99 % of control; (dose: 25.0 micrograms/kg/injection, schedule: Q01DX009 (ip), vehicle: saline) 115 % of control; (dose: 50.0 micrograms/kg/injection, schedule: Q01DX009 (ip), vehicle: saline) 150 % of control; (dose: 100.0 micrograms/kg/injection, schedule: Q01DX009 (ip), vehicle: saline) 123 % of control.
Turning to `CCC(C)C(=O)O[C@H]1C(=O)O[C@@H]2C[C@H]3C(C)=CC(=O)[C@@H](O)[C@]3(C)[C@H]3[C@@H](O)[C@H](O)[C@@]4(C)OC[C@]32[C@@H]14` (stereo not given in full), the T/C is, setting by setting: (dose: 0.5 mg/kg/injection, schedule: Q04DX002 (ip), vehicle: saline) 102 % of control; (dose: 1.0 mg/kg/injection, schedule: Q04DX002 (ip), vehicle: saline) 98 % of control; (dose: 2.0 mg/kg/injection, schedule: Q04DX002 (ip), vehicle: saline) 97 % of control.
As for `Nc1ncn(C2OC(CO)C(O)C2O)c(=O)n1` (stereo not given), the T/C is 107 % of control (dose: 13.0 mg/kg/injection, schedule: Q04DX003 (iv), vehicle: saline) and 92 % of control (dose: 21.0 mg/kg/injection, schedule: Q04DX003 (iv), vehicle: saline).
